From patent US12077503B2, “Substituted cyclic amides and their use as herbicides” (FMC CORPORATION, priority 2015, dated 2024)

Key:
Format in all cases: in vivo
[1] = tested on: barnyardgrass (Echinochloa crus-galli); experiment: Test G Pre-Emergence Protocol; conditions: Echinochloa crus-galli, pre-emergence, 312 h, evaluated after 13 days; for pest or weed control at 15.625 g/ha: 15.625 g ai/ha, read-out: Barnyard grass damage rating (100=total damage to plant; 0=no damage to plant); for pest or weed control at 62.5 g/ha: 62.5 g ai/ha, 100=total damage to plant, 0=no damage to plant, read-out: plant damage rating, Barnyardgrass; for pest or weed control at 250 g/ha: 250 g ai/ha, read-out: Barnyardgrass damage rating (100=total damage to plant; 0=no damage to plant)
Summary of the method: (§1)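 Scores are visual damage ratings from 0 (no damage) to 100 (total plant kill), taken 13 days after treatment. Compound was sprayed one day post-sowing at 15.625, 62.5 or 250 g/ha in 50:50 acetone/water with 0.5% Tween 20.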

corn (Zea mays) [2] = experiment: Test G Pre-Emergence Protocol; conditions: Zea mays, pre-emergence, 312 h, evaluated after 13 days; for plant injury at 15.625 g/ha: 15.625 g ai/ha; for plant injury at 15.625 g/ha / plant injury at 250 g/ha: read-out: Corn damage rating (100=total damage to plant; 0=no damage to plant); for plant injury at 62.5 g/ha: 62.5 g ai/ha, 100=total damage to plant, 0=no damage to plant, read-out: plant damage rating, Corn; for plant injury at 250 g/ha: 250 g ai/ha
Summary of the method: as §1

[3] = tested on: giant foxtail (Setaria faberi); experiment: Test G Pre-Emergence Protocol; conditions: Setaria faberi, pre-emergence, 312 h, evaluated after 13 days; for pest or weed control at 15.625 g/ha: 15.625 g ai/ha; for pest or weed control at 15.625 g/ha / pest or weed control at 250 g/ha: read-out: Foxtail, Giant damage rating (100=total damage to plant; 0=no damage to plant); for pest or weed control at 62.5 g/ha: 62.5 g ai/ha, 100=total damage to plant, 0=no damage to plant, read-out: plant damage rating, Foxtail, Giant; for pest or weed control at 250 g/ha: 250 g ai/ha
Summary of the method: as §1

[4] = tested on: ivy-leaved morning glory (Ipomoea hederacea); experiment: Test G Pre-Emergence Protocol; conditions: Ipomoea, pre-emergence, 312 h, evaluated after 13 days; for pest or weed control at 15.625 g/ha: 15.625 g ai/ha, read-out: Morning-glory, Ivy-leaved damage rating (100=total damage to plant; 0=no damage to plant); for pest or weed control at 62.5 g/ha: 62.5 g ai/ha, 100=total damage to plant, 0=no damage to plant, read-out: plant damage rating, Morningglory, Ivy-leaved; for pest or weed control at 250 g/ha: 250 g ai/ha, read-out: Morningglory, Ivy-leaved damage rating (100=total damage to plant; 0=no damage to plant)
Summary of the method: as §1

[5] = tested on: redroot pigweed (Amaranthus retroflexus); experiment: Test G Pre-Emergence Protocol; conditions: Amaranthus retroflexus, pre-emergence, 312 h, evaluated after 13 days; for pest or weed control at 15.625 g/ha: 15.625 g ai/ha; for pest or weed control at 15.625 g/ha / pest or weed control at 250 g/ha: read-out: Pigweed, Redroot damage rating (100=total damage to plant; 0=no damage to plant); for pest or weed control at 62.5 g/ha: 62.5 g ai/ha, 100=total damage to plant, 0=no damage to plant, read-out: plant damage rating, Pigweed, Redroot; for pest or weed control at 250 g/ha: 250 g ai/ha
Summary of the method: as §1

[6] = tested on: velvetleaf (Abutilon theophrasti); experiment: Test G Pre-Emergence Protocol; conditions: Abutilon theophrasti, pre-emergence, 312 h, evaluated after 13 days; for pest or weed control at 15.625 g/ha: 15.625 g ai/ha; for pest or weed control at 15.625 g/ha / pest or weed control at 250 g/ha: read-out: Velvetleaf damage rating (100=total damage to plant; 0=no damage to plant); for pest or weed control at 62.5 g/ha: 62.5 g ai/ha, 100=total damage to plant, 0=no damage to plant, read-out: plant damage rating, Velvetleaf; for pest or weed control at 250 g/ha: 250 g ai/ha
Summary of the method: as §1

[7] = tested on: barnyardgrass (Echinochloa crus-galli); experiment: Test G Post-Emergence Protocol; conditions: Echinochloa crus-galli, post-emergence, 312 h; for pest or weed control at 15.625 g/ha: 15.625 g ai/ha, evaluated after 13 days (100=total damage to plant; 0=no damage to plant), read-out: Barnyardgrass damage rating; for pest or weed control at 62.5 g/ha: 62.5 g ai/ha, read-out: Barnyardgrass damage rating (100=total damage to plant; 0=no damage to plant); for pest or weed control at 62.5 g/ha / pest or weed control at 250 g/ha: evaluated after 13 days; for pest or weed control at 250 g/ha: 250 g ai/ha, read-out: damage to plant, Barnyardgrass (100=total damage to plant; 0=no damage to plant)
Summary of the method: (§2)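 Sow in soil; grow 8 d (24/16 °C, 14 h light, 65% humidity); spray 15.625/62.5/250 g/ha in acetone:water 50:50 + 0.5% Tween 20; grow on, water twice daily; score damage 0–100 at 13 d.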

corn (Zea mays) [8] = experiment: Test G Post-Emergence Protocol; conditions: Zea mays, post-emergence, 312 h; for plant injury at 15.625 g/ha: 15.625 g ai/ha, evaluated after 13 days (100=total damage to plant; 0=no damage to plant), read-out: Corn damage rating; for plant injury at 62.5 g/ha: 62.5 g ai/ha, read-out: Corn damage rating (100=total damage to plant; 0=no damage to plant); for plant injury at 62.5 g/ha / plant injury at 250 g/ha: evaluated after 13 days; for plant injury at 250 g/ha: 250 g ai/ha, read-out: damage to plant, Corn (100=total damage to plant; 0=no damage to plant)
Summary of the method: as §2

[9] = tested on: giant foxtail (Setaria faberi); experiment: Test G Post-Emergence Protocol; conditions: Setaria faberi, post-emergence, 312 h; for pest or weed control at 15.625 g/ha: 15.625 g ai/ha, evaluated after 13 days (100=total damage to plant; 0=no damage to plant), read-out: Foxtail, Giant damage rating; for pest or weed control at 62.5 g/ha: 62.5 g ai/ha, read-out: Foxtail, Giant damage rating (100=total damage to plant; 0=no damage to plant); for pest or weed control at 62.5 g/ha / pest or weed control at 250 g/ha: evaluated after 13 days; for pest or weed control at 250 g/ha: 250 g ai/ha, read-out: damage to plant, Foxtail, Giant (100=total damage to plant; 0=no damage to plant)
Summary of the method: as §2

[10] = tested on: ivy-leaved morning glory (Ipomoea hederacea); experiment: Test G Post-Emergence Protocol; conditions: Ipomoea, post-emergence, 312 h; for pest or weed control at 15.625 g/ha: 15.625 g ai/ha, evaluated after 13 days (100=total damage to plant; 0=no damage to plant), read-out: Morningglory, Ivy-leaved damage rating; for pest or weed control at 62.5 g/ha: 62.5 g ai/ha, read-out: Morningglory, Ivy-leaved damage rating (100=total damage to plant; 0=no damage to plant); for pest or weed control at 62.5 g/ha / pest or weed control at 250 g/ha: evaluated after 13 days; for pest or weed control at 250 g/ha: 250 g ai/ha, read-out: damage to plant, Morningglory, Ivy-leaved (100=total damage to plant; 0=no damage to plant)
Summary of the method: as §2

[11] = tested on: redroot pigweed (Amaranthus retroflexus); experiment: Test G Post-Emergence Protocol; conditions: Amaranthus retroflexus, post-emergence, 312 h; for pest or weed control at 15.625 g/ha: 15.625 g ai/ha, evaluated after 13 days (100=total damage to plant; 0=no damage to plant), read-out: Pigweed, Redroot damage rating; for pest or weed control at 62.5 g/ha: 62.5 g ai/ha, read-out: Pigweed, Redroot damage rating (100=total damage to plant; 0=no damage to plant); for pest or weed control at 62.5 g/ha / pest or weed control at 250 g/ha: evaluated after 13 days; for pest or weed control at 250 g/ha: 250 g ai/ha, read-out: damage to plant, Pigweed, Redroot (100=total damage to plant; 0=no damage to plant)
Summary of the method: as §2

[12] = tested on: velvetleaf (Abutilon theophrasti); experiment: Test G Post-Emergence Protocol; conditions: Abutilon theophrasti, post-emergence, 312 h; for pest or weed control at 15.625 g/ha: 15.625 g ai/ha, evaluated after 13 days (100=total damage to plant; 0=no damage to plant), read-out: Velvetleaf damage rating; for pest or weed control at 62.5 g/ha: 62.5 g ai/ha, read-out: Velvetleaf damage rating (100=total damage to plant; 0=no damage to plant); for pest or weed control at 62.5 g/ha / pest or weed control at 250 g/ha: evaluated after 13 days; for pest or weed control at 250 g/ha: 250 g ai/ha, read-out: damage to plant, Velvetleaf (100=total damage to plant; 0=no damage to plant)
Summary of the method: as §2

With CN1C[C@H](c2cccc(C(F)F)c2)[C@@H](C(=O)Nc2ccccc2F)C1=O (racemic) [Compound 1464] the pest or weed control at 15.625 g/ha [1] was 80%, the pest or weed control at 62.5 g/ha [1] was 90% and the pest or weed control at 250 g/ha [1] was 90%. The plant injury at 15.625 g/ha (corn (Zea mays) [2]) was 0%, the plant injury at 62.5 g/ha (corn (Zea mays) [2]) was 50% and the plant injury at 250 g/ha (corn (Zea mays) [2]) was 80%. For the same molecule, the pest or weed control at 15.625 g/ha [3] was 80%, the pest or weed control at 62.5 g/ha [3] was 90% and the pest or weed control at 250 g/ha [3] was 90%. It also gave a pest or weed control at 15.625 g/ha [4] of 0%, a pest or weed control at 62.5 g/ha [4] of 30% and a pest or weed control at 250 g/ha [4] of 70%. It also gave a pest or weed control at 15.625 g/ha [5] of 0%, a pest or weed control at 62.5 g/ha [5] of 0% and a pest or weed control at 250 g/ha [5] of 0%. For the same molecule, the pest or weed control at 15.625 g/ha [6] was 0%, the pest or weed control at 62.5 g/ha [6] was 0% and the pest or weed control at 250 g/ha [6] was 0%. It also gave a pest or weed control at 15.625 g/ha [7] of 20%, a pest or weed control at 62.5 g/ha [7] of 20% and a pest or weed control at 250 g/ha [7] of 50%. It also gave a plant injury at 15.625 g/ha (corn (Zea mays) [8]) of 20%, a plant injury at 62.5 g/ha (corn (Zea mays) [8]) of 10% and a plant injury at 250 g/ha (corn (Zea mays) [8]) of 80%. It also gave a pest or weed control at 15.625 g/ha [9] of 70%, a pest or weed control at 62.5 g/ha [9] of 70% and a pest or weed control at 250 g/ha [9] of 70%. It also gave a pest or weed control at 15.625 g/ha [10] of 10%, a pest or weed control at 62.5 g/ha [10] of 20% and a pest or weed control at 250 g/ha [10] of 50%. It also gave a pest or weed control at 15.625 g/ha [11] of 10%, a pest or weed control at 62.5 g/ha [11] of 10% and a pest or weed control at 250 g/ha [11] of 30%. The pest or weed control at 15.625 g/ha [12] was 10%, the pest or weed control at 62.5 g/ha [12] was 0% and the pest or weed control at 250 g/ha [12] was 10%.
CC(C)c1cc([C@H]2CN(C)C(=O)[C@@H]2C(=O)Nc2cccc(F)c2F)cnn1 (racemic) [Compound 1488] showed a pest or weed control at 15.625 g/ha [1] of 0%, a pest or weed control at 62.5 g/ha [1] of 0% and a pest or weed control at 250 g/ha [1] of 0%. It also gave a plant injury at 15.625 g/ha (corn (Zea mays) [2]) of 0%, a plant injury at 62.5 g/ha (corn (Zea mays) [2]) of 0% and a plant injury at 250 g/ha (corn (Zea mays) [2]) of 0%. It also gave a pest or weed control at 15.625 g/ha [3] of 0%, a pest or weed control at 62.5 g/ha [3] of 0% and a pest or weed control at 250 g/ha [3] of 0%. It also gave a pest or weed control at 15.625 g/ha [4] of 0%, a pest or weed control at 62.5 g/ha [4] of 0% and a pest or weed control at 250 g/ha [4] of 0%. The pest or weed control at 15.625 g/ha [5] was 0%, the pest or weed control at 62.5 g/ha [5] was 0% and the pest or weed control at 250 g/ha [5] was 0%. The pest or weed control at 15.625 g/ha [6] was 0%, the pest or weed control at 62.5 g/ha [6] was 0% and the pest or weed control at 250 g/ha [6] was 0%. The pest or weed control at 15.625 g/ha [7] was 0%, the pest or weed control at 62.5 g/ha [7] was 20% and the pest or weed control at 250 g/ha [7] was 20%. For the same molecule, the plant injury at 15.625 g/ha (corn (Zea mays) [8]) was 0%, the plant injury at 62.5 g/ha (corn (Zea mays) [8]) was 10% and the plant injury at 250 g/ha (corn (Zea mays) [8]) was 0%. The pest or weed control at 15.625 g/ha [9] was 0%, the pest or weed control at 62.5 g/ha [9] was 0% and the pest or weed control at 250 g/ha [9] was 30%. It also gave a pest or weed control at 15.625 g/ha [10] of 0%, a pest or weed control at 62.5 g/ha [10] of 0% and a pest or weed control at 250 g/ha [10] of 0%. The pest or weed control at 15.625 g/ha [11] was 0%, the pest or weed control at 62.5 g/ha [11] was 0% and the pest or weed control at 250 g/ha [11] was 0%. For the same molecule, the pest or weed control at 15.625 g/ha [12] was 0%, the pest or weed control at 62.5 g/ha [12] was 0% and the pest or weed control at 250 g/ha [12] was 0%.
